Structures are written as SMILES. Calls of active or inactive are those of the source. For most assays here, no stated cut-off is given here; in the data, actives have a measured Kd and inactives only a lower limit. A value given as a limit tells only on which side of the number the result lay.

As usually defined, the Kd is the equilibrium constant for the complex coming apart.

The target in assay [1] is T1, Calcium/calmodulin-dependent protein kinase type IV (Homo sapiens, UniProt Q16566).
T1 sequence (Q16566 whole entry): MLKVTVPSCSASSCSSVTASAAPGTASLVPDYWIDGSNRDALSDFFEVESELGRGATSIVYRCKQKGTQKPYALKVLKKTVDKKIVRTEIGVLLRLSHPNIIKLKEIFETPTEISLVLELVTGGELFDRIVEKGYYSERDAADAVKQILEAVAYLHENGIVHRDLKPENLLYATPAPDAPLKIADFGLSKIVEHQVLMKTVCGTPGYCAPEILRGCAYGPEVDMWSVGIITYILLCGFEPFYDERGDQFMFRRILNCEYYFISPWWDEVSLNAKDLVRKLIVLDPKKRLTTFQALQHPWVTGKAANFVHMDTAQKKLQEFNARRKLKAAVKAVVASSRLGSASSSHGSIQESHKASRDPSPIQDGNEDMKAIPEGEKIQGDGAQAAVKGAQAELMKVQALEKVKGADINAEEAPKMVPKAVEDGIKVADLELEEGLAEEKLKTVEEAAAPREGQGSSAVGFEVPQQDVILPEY

Assay [2] addresses Eukaryotic translation initiation factor 2-alpha kinase 1 (Homo sapiens, UniProt Q9BQI3).
The next assay concerns the target T2, Ephrin type-B receptor 2 (Homo sapiens, UniProt P29323).
T2 sequence (P29323 whole entry): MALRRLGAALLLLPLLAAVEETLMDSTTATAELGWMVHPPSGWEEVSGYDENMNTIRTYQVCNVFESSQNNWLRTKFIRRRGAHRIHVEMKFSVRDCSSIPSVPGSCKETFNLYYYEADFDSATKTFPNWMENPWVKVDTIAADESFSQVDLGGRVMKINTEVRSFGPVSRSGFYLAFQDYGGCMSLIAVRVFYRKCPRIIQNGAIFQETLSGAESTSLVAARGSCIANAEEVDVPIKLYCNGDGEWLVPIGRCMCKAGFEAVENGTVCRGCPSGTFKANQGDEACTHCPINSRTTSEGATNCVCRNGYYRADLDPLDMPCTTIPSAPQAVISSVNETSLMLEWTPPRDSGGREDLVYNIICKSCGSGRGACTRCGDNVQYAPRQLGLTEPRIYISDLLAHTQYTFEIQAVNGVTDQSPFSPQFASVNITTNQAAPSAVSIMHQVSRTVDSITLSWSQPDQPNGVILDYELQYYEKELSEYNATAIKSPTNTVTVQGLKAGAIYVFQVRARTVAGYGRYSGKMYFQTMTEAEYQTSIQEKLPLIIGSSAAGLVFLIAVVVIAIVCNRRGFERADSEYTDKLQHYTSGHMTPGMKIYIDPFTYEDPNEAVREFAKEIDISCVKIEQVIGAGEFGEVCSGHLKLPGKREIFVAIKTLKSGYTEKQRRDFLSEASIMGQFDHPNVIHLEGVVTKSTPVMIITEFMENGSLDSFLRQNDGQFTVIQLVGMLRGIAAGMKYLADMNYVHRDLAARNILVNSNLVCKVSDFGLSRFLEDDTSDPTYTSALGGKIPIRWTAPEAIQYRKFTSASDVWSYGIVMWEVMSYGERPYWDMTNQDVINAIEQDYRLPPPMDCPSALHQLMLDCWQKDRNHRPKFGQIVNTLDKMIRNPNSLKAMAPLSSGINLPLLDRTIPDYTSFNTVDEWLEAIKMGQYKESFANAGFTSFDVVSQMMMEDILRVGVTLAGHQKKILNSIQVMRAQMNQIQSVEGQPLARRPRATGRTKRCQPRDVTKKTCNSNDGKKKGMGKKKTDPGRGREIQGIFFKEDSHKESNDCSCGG

The next assay has as its target T3, Scaffold protein ILK (Homo sapiens, UniProt Q13418).
T3 sequence (Q13418 whole entry): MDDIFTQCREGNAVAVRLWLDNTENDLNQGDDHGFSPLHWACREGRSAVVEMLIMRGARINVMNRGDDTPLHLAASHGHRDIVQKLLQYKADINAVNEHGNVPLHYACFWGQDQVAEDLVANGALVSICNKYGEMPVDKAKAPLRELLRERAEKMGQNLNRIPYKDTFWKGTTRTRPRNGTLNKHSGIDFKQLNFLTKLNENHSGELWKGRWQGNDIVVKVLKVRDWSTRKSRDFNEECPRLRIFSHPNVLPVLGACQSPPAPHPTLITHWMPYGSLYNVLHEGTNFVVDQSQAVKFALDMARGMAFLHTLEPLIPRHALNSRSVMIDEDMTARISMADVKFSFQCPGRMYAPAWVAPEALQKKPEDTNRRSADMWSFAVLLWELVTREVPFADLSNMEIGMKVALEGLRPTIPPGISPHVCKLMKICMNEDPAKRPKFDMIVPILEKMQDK

Assay [3] has as its target PAS domain-containing serine/threonine-protein kinase (Homo sapiens, UniProt Q96RG2).
Assay [4] has as its target Platelet-derived growth factor receptor beta (Homo sapiens, UniProt P09619).
Assay [5] deals with T4, Signal recognition particle receptor subunit alpha (Homo sapiens, UniProt P08240).
T4 sequence (P08240 whole entry): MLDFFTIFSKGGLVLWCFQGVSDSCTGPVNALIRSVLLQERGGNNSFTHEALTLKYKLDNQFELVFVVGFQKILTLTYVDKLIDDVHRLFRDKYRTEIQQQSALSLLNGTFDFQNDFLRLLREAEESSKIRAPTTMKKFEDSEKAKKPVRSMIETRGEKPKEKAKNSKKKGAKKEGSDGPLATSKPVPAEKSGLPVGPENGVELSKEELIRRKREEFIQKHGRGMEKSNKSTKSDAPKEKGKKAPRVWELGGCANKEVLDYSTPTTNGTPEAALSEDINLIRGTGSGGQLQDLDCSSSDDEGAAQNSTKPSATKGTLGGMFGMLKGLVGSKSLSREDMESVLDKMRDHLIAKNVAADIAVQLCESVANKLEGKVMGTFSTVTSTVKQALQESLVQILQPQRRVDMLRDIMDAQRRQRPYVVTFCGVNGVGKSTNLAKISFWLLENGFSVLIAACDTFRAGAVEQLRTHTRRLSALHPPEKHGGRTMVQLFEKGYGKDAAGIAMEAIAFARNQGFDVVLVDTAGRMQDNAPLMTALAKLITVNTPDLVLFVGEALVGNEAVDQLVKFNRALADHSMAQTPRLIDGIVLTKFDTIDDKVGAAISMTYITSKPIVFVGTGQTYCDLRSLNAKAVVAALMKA

The target of assay [6] is Elongation factor Tu, mitochondrial (Homo sapiens, UniProt P49411).
Assay [7] addresses Hepatocyte growth factor receptor (Homo sapiens, UniProt P08581).

Eukaryotic translation initiation factor 2-alpha kinase 1, sequence (Q9BQI3 whole entry): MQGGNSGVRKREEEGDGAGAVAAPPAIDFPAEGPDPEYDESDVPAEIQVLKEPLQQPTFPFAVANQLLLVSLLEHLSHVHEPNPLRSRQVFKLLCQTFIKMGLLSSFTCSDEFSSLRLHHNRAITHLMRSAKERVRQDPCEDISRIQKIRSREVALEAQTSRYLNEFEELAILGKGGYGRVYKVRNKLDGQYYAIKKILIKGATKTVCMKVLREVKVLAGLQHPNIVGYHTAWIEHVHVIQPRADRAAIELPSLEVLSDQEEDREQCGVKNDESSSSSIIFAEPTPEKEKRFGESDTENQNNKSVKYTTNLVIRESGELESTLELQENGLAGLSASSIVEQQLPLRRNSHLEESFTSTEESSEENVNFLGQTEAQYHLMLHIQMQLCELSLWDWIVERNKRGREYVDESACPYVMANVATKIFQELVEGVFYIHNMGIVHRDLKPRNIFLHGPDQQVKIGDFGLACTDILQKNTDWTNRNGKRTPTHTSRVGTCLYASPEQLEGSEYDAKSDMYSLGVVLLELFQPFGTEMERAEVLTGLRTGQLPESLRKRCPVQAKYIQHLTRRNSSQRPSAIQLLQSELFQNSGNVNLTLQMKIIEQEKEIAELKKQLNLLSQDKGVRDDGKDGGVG
PAS domain-containing serine/threonine-protein kinase, sequence (Q96RG2 whole entry, the tested form may be a part): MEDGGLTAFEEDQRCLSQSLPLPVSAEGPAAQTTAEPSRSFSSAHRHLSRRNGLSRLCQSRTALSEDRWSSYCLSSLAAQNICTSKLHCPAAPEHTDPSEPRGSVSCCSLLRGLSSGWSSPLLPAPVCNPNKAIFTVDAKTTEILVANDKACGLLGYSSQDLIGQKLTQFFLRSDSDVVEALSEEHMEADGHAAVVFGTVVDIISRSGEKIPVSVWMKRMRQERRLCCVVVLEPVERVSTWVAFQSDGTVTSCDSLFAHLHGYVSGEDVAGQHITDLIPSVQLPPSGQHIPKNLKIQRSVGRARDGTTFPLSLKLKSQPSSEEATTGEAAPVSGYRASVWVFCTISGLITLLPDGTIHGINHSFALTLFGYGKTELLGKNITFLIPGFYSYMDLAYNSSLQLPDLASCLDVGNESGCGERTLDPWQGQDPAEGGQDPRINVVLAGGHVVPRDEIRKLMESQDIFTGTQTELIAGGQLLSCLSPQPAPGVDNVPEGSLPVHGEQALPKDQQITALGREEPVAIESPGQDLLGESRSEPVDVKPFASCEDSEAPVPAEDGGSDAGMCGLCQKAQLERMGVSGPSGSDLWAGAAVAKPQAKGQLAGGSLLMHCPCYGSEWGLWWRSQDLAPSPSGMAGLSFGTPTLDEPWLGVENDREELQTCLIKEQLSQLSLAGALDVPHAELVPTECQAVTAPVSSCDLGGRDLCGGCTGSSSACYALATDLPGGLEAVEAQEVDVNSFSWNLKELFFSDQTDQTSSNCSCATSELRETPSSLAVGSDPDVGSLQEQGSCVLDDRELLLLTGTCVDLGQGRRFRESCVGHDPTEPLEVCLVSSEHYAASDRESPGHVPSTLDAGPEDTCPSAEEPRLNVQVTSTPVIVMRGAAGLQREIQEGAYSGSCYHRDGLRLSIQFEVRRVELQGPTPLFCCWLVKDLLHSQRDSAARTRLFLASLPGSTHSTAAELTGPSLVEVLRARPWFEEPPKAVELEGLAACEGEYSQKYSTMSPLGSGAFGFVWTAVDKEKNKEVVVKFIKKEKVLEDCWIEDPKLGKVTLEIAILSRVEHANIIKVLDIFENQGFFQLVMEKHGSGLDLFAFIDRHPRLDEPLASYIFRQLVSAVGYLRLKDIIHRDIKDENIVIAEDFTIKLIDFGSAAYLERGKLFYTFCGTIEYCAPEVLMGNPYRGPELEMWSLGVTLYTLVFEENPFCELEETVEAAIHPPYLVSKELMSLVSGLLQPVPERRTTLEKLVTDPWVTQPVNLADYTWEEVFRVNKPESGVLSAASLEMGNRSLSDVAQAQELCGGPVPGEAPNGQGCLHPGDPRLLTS
Platelet-derived growth factor receptor beta, sequence (P09619 whole entry): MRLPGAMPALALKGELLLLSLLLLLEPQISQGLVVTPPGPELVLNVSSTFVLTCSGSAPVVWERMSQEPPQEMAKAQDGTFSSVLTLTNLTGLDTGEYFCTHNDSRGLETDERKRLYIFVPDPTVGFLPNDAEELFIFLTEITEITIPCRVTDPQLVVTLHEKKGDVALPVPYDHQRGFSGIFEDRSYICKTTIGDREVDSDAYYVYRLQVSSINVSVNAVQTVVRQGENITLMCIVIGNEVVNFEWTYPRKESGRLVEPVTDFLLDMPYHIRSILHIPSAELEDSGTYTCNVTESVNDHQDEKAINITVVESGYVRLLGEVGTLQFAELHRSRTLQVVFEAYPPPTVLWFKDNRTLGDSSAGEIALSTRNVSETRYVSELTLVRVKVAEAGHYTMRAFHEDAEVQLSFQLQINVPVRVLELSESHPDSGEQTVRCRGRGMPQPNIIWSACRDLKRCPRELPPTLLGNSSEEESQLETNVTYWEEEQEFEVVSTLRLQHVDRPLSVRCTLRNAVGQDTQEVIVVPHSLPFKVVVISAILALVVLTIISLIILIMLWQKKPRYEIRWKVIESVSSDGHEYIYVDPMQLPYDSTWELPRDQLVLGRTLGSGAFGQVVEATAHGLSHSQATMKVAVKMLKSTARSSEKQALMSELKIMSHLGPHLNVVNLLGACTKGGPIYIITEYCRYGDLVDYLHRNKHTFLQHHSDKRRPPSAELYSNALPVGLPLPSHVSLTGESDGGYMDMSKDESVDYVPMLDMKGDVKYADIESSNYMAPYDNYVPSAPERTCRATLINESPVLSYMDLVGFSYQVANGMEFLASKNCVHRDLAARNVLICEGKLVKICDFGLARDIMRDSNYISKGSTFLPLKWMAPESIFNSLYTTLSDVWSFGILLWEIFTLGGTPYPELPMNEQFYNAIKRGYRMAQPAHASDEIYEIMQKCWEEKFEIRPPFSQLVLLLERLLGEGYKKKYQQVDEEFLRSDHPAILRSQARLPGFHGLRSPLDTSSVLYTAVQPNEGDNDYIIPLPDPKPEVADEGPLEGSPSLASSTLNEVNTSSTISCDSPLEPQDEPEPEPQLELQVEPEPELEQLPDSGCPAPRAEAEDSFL
Hepatocyte growth factor receptor, sequence (P08581 whole entry): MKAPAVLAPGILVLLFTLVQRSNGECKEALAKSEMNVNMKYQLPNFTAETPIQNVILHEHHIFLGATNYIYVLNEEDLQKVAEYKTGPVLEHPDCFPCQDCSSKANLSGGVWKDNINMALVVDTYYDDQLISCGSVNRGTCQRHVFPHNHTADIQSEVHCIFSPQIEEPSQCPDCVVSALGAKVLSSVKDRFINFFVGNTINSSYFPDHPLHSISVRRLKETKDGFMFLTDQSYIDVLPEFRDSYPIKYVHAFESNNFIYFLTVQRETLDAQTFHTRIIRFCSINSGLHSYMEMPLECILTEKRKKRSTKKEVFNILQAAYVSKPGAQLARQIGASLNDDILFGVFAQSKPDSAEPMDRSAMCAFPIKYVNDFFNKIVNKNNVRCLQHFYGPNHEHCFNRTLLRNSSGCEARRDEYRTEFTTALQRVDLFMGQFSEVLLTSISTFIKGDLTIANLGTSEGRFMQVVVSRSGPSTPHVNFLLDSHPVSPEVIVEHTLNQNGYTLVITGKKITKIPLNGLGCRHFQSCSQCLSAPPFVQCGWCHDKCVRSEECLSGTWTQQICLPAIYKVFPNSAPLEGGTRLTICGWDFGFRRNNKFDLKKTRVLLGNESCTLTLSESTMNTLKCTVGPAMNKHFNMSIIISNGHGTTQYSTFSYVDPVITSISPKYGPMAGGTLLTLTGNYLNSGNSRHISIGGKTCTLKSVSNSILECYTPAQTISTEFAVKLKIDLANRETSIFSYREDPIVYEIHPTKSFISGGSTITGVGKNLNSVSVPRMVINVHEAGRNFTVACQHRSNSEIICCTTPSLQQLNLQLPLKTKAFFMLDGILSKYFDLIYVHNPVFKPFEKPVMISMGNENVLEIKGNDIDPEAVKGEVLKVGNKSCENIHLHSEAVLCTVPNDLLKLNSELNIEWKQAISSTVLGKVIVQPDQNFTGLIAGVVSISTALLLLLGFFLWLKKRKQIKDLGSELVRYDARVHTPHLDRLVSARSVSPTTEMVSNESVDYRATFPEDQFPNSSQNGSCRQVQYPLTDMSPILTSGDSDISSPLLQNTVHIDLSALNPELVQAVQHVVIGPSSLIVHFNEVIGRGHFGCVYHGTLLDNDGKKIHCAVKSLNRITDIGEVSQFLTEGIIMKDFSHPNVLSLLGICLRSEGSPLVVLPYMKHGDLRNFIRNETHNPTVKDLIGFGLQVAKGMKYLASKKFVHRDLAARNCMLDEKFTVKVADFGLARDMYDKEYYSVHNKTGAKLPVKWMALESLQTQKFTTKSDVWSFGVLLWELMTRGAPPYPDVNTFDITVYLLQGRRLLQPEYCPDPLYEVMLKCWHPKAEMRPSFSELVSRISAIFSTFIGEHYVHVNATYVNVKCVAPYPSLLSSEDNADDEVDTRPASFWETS

Regarding `COc1cc(Nc2ncc3c(n2)-c2ccc(Cl)cc2C(c2c(F)cccc2OC)=NC3)ccc1C(=O)O` [ALISERTIB], the Kd (in [1]; in [2]; on Ephrin type-B receptor 2; at Scaffold protein ILK; in assay [3]; in assay [4]) was > 30 µM (inactive) each time. Besides, the Kd in [5] and in [6] was > 30 µM (inactive) each time.
Consider `O=C(Nc1c[nH]nc1-c1nc2cc(CN3CCOCC3)ccc2[nH]1)NC1CC1` [AT-9283], for which the Kd (in [1]; in assay [2]; at Ephrin type-B receptor 2; at Scaffold protein ILK; in assay [3]; in [4]) was > 30 µM (inactive) throughout. Moreover, the Kd in [5] and in [6] was > 30 µM (inactive) each time.
In the case of `C=CC(=O)Nc1cc2c(Nc3ccc(F)c(Cl)c3)ncnc2cc1C#CC(C)(C)N1CCN(C)CC1` [AV-412 FREE BASE], the Kd (in assay [2]; at Ephrin type-B receptor 2; at Scaffold protein ILK; in [7]; in assay [3]; in assay [4]) was > 30 µM (inactive) throughout. Moreover, the Kd in assay [5] and in [6] was > 30 µM (inactive) each time.
With `Cc1cc(C(=O)NOCCO)c(Nc2ccc(I)cc2F)n(C)c1=O` [AZD-8330], the Kd is > 30 µM (inactive) in [1]; 1.82 µM in [2]; > 30 µM (inactive) at Ephrin type-B receptor 2; > 30 µM (inactive) at Scaffold protein ILK; > 30 µM (inactive) in assay [3]; > 30 µM (inactive) in [4]. Further, the Kd in [5] and in assay [6] was > 30 µM (inactive) each time.
In the case of `COc1cc2ncnc(Oc3cccc(NC(=O)Nc4cc(C(C)(C)C(F)(F)F)on4)c3)c2cc1OC` [CEP-32496], the Kd (in assay [1]; in assay [2]; on Ephrin type-B receptor 2; on Scaffold protein ILK; in assay [7]; in assay [3]) was > 30 µM (inactive) in each case. Besides, the Kd in [5] and in [6] was > 30 µM (inactive) each time.
In the case of `CCn1cc(-c2ccnc3[nH]c(-c4cccc(CN(C)C)c4)cc23)c(-c2ccc(NC(=O)N(C)C)cc2)n1` [GSK-1070916], the Kd (in assay [1]; in [2]; at Ephrin type-B receptor 2; on Scaffold protein ILK; in assay [7]; in assay [3]) was > 30 µM (inactive) in each case. Also, the Kd in [4] and in [6] was > 30 µM (inactive) throughout.
With `Cn1cc(-c2cnc3ccc4ccc(CS(=O)(=O)NCc5ccccn5)cc4c(=O)c3c2)cn1` [MK-8033], the Kd (in assay [1]; in assay [2]; on Ephrin type-B receptor 2; at Scaffold protein ILK; in [3]; in assay [4]) was > 30 µM (inactive) each time. The Kd in assay [5] and in assay [6] was > 30 µM (inactive) in each case.
As for `COc1ncc(-c2ccc3nccc(-c4ccnnc4)c3c2)cc1NS(=O)(=O)c1ccc(F)cc1F` [OMIPALISIB], the Kd (in assay [1]; in assay [2]; on Ephrin type-B receptor 2; at Scaffold protein ILK; in [3]; in [4]) was > 30 µM (inactive) throughout. The Kd in [5] and in [6] was > 30 µM (inactive) throughout.
Regarding `Cc1[nH]c(/C=C2\C(=O)Nc3ccccc32)c(C)c1CCC(=O)O` [ORANTINIB], the Kd is > 30 µM (inactive) in assay [1]; > 30 µM (inactive) in [2]; > 30 µM (inactive) at Ephrin type-B receptor 2; > 30 µM (inactive) on Scaffold protein ILK; > 30 µM (inactive) in assay [3]; 0.744 µM (active) in assay [4]. Also, the Kd in [5] and in assay [6] was > 30 µM (inactive) throughout.
As for `CCCCCCCCCCCCCCCCCCOP(=O)([O-])OC1CC[N+](C)(C)CC1` [PERIFOSINE], the Kd (in [1]; in [2]; on Ephrin type-B receptor 2; at Scaffold protein ILK; in [3]; in assay [4]) was > 30 µM (inactive) each time. For the same molecule, the Kd in assay [5] and in [6] was > 30 µM (inactive) each time.
Consider `N#CC1(c2ccc(NC(=O)c3cccnc3NCc3ccncc3)cc2)CCCC1` [RIVOCERANIB], for which the Kd (in assay [1]; in assay [2]; on Ephrin type-B receptor 2; at Scaffold protein ILK; in assay [7]; in assay [3]) was > 30 µM (inactive) in each case. Besides, the Kd in [4] and in [6] was > 30 µM (inactive) in each case.
Turning to `CN1CCN(CCOc2cc(OC3CCOCC3)c3c(Nc4c(Cl)ccc5c4OCO5)ncnc3c2)CC1` [SARACATINIB], the Kd is > 30 µM (inactive) in [1]; > 30 µM (inactive) in [2]; 9.42 µM (active) on Ephrin type-B receptor 2; > 30 µM (inactive) on Scaffold protein ILK; > 30 µM (inactive) in assay [7]; > 30 µM (inactive) in assay [3]. Moreover, the Kd in [5] and in assay [6] was > 30 µM (inactive) each time.
